Measurements published in patent US20040259104A1, “Test” (priority 2002, published 2004).
Several values for one entry are separate records, joined by “and”; a condition that tells them apart may be missing. Equal values may be shown once.

Key:
Assay type in all cases: in vivo, human
[1] = tested on: feedback sensitivity of the HPA-axis; test: Dexamethasone suppression test (DST): serum cortisol after DEX; conditions: mean
Excerpt: A total of 202 human subjects participated in the study. Their age varied between 53 and 82 years ([…] with mean ages of 67.7±0.6 and 65.9±0.6 years, respectively). They were living in a suburb of Rotterdam, The Netherlands. These subjects were participants in the Rotterdam Study, a population-based cohort study (7983 subjects) of the determinants of chronic disabling diseases in the elderly and were selected at random. Subjects with acute, psychiatric or endocrine diseases, including diabetes mellitus treated with medication were not invited. Compared to all participants of the Rotterdam study, there were no differences in age and gender distribution and cardiovascular risk factors. The subjects gave their written consent to participate in the study, which received the approval of the Medical Ethics Committee of the Erasmus University Medical School. In order to get more information about the individual variability of the feedback sensitivity of the HPA-axis all 202 subjects were invited for a second DST with a lower dose DEX (0.25 mg) two and a half years later. 149 subjects agreed to participate in this second test (72 men and 77 women).
(§1) The two dexamethasone suppression tests (DST) were performed as described previously (Huizenga et al, J.Clin.Endocrinol Metab.1998; 83(1): 47-54). In brief, venous blood was obtained in the morning between 8 and 9 am after an overnight fast for serum cortisol and insulin measurements. Participants were instructed to ingest a tablet of 1 mg (and 0.25 mg, respectively) DEX at 11.00 pm. The next morning fasting blood was drawn by venapuncture at the same time as the previous morning. To check for compliance and possible abnormalities in the metabolism of DEX, the DEX concentration was also measured in a radioimmunoassay using antiserum obtained from IgG Corporation (Nashville, Tenn.). Intra- and interassay variations were below 8.5% and 14.2% respectively.
(§2) Serum cortisol concentrations were determined using RIA-kits obtained from Diagnostics Products Corporation (Los Angeles, Calif.). Intra- and interassay variations were below 8.0% and 9.5% respectively. Circulating insulin and cortisol binding globulin concentrations were determined using commercially available ratioimmunoassays (Medgenix Diagnostics, Brussels, Belgium). Intra- and interassay variations were 8.0% and 13.7% respectively. Estradiol, androstenedione and DHEAS concentrations were determined using RIA-kits obtained from Diagnostics Products Corporation. Intra- and interassay variations; estradiol: 7.0% and 8.1% androstenedione: 8.3% and 9.2%, DHEAS: 5.3% and 7.0% SHBG was assayed with an commercially available immunoradiometric assay (Diagnostics Products Corporation; intra- and interassay variations were 3.6% and 6.9% respectively). Testosterone was measured with a non-commercial radioimmunoassay (intra- and interassay variations 3.6% and 6.9%). Commercially available immunoradiometric assays were used for the measurement of IGF-BP1 (Diagnostic System Laboratories Inc.; intra- and interassay variations 4.0% and 6.0%).

[2] = DEX concentration by radioimmunoassay after DST; conditions: mean
Procedure: as §1

[3] = Fasting serum insulin after DEX administration (DST); conditions: for Post DEX insulin / Δ insulin: mean
Procedure: as §1, §2

[4] = Fasting glucose after DEX administration (DST); conditions: 0.25 mg DEX
Procedure: as §1
Glucose, total cholesterol, HDL-chlesterol and triglycerides were measured using standard laboratory methods. Low density lipoprotein (LDL)-cholesterol was calculated using the following formula: LDL-cholesterol=total cholesterol−((triglycerides/5)+HDL-cholesterol).

[5] = 0.25 mg DEX, ER22/23EK-carriers (n = 13), second examination
[6] = 0.25 mg DEX, non-carriers (n = 136), second examination

C[C@@H]1C[C@H]2[C@@H]3CCC4=CC(=O)C=C[C@]4(C)[C@@]3(F)[C@@H](O)C[C@]2(C)[C@@]1(O)C(=O)CO [DEX, dexamethasone]
PostDEX cortisol [1, 5]: 267.5 nmol/L
Δ cortisol [1, 5]: 259.7 nmol/L
PostDEX cortisol [1, 6]: 259.5 nmol/L
Δ cortisol [1, 6]: 285.8 nmol/L
PostDEX cortisol ([1]; 1 mg DEX oral at 11.00 pm, next morning fasting, ER22/23EK-carriers (n = 18), first examination): 57.9 nmol/L
PostDEX cortisol ([1]; 1 mg DEX oral at 11.00 pm, next morning fasting, non-carriers (n = 184), first examination): 33.3 nmol/L
Δ cortisol ([1]; cortisol suppression in reaction to 1 mg DEX, ER22/23EK-carriers (n = 18)): 504.9 nmol/L
Δ cortisol ([1]; cortisol suppression in reaction to 1 mg DEX, non-carriers (n = 184)): 481.4 nmol/L
DEX concentration ([2]; morning after 0.25 mg DEX, ER22/23EK-carriers (n = 13)): 2.88 nmol/L
DEX concentration ([2]; morning after 0.25 mg DEX, non-carriers (n = 136)): 2.85 nmol/L
DEX concentration ([2]; morning after 1 mg DEX, ER22/23EK-carriers (n = 18)): 6.63 nmol/L
DEX concentration ([2]; morning after 1 mg DEX, non-carriers (n = 184)): 7.32 nmol/L
Post DEX insulin ([3]; 0.25 mg DEX, ER22/23EK-carriers (n = 10), second examination): 10.0 mU/l
Post DEX insulin ([3]; 0.25 mg DEX, non-carriers (n = 105), second examination): 14.2 mU/l
insulin level after DEX administration ([3]; 0.25 mg DEX, total group of 115 subjects, 14.7 before, p=0.02): 13.9±0.50 mU/L
Post DEX insulin ([3]; 1 mg DEX, ER22/23EK-carriers (n = 15), first examination): 14.4 mU/l
insulin concentration after DEX administration ([3]; 1 mg DEX, all 182 subjects together, 11.5±5.15 before, p<0.001): 17.2±8.41 mU/L
Post DEX insulin ([3]; 1 mg DEX, non-carriers (n = 167), first examination): 17.4 mU/l
Δ insulin ([3]; change in response to 0.25 mg DEX, ER22/23EK-carriers (n = 10)): 0.01 mU/l
Δ insulin ([3]; change in response to 0.25 mg DEX, non-carriers (n = 105)): −0.92 mU/l
Δ insulin ([3]; change in response to 1 mg DEX, ER22/23EK-carriers (n = 15)): 5.5±1.3 mU/l and 5.5 mU/l
Δ insulin ([3]; change in response to 1 mg DEX, non-carriers (n = 167)): 5.7±0.6 mU/l and 5.7 mU/l
glucose concentration after the 0.25 mg DST ([4]; ER22/23EK-carriers): 5.3 ± 0.17 mmol/L
glucose concentration after DST ([4]; all subjects, 5.6±0.06 before, p=0.004): 5.5 ± 0.05 mmol/L
glucose concentration after the 0.25 mg DST ([4]; non-carriers): 5.5 ± 0.05 mmol/L
